Measurements: US20240350475A1, “TR[…] CARD[…] BY SARS-COV-2 SPIKE PROTEIN UNDER OBESITY” (priority 2023, published 2024)
“Also recorded” adds a separate entry of the source.

Tests used:
[1] = tested on: HEK293 and HEK_pcDNA cells; experiment: Palmitic acid (PA)-induced lipotoxicity assay in control cells; format: cell-based, Human; conditions: PA overload; HEK293 (mock) and pcDNA cells; DMEM 5% FBS
Description: (§1) The HEK293, HEK_pcDNA, and HEK_Spike cells were cultured in a 96-well plate and reached to 80% confluence on the next day before treatment. The cells were kept in DMEM medium with 5% FBS during the entire treatment procedure. The cells were treated with PA (free BSA) in various concentrations from 250 to 1000 M for 24, 48, or 72 h.
For treatment control groups, the cells were treated by the same concentrations of BSA in parallel. For the inhibitory assay, the cells were pre-incubated by autophagic inhibitors (125 M trigonelline (TRG), or 10 M Wortmannin), or a ferropotosis inhibitor (ferrostatin, 2 M), or an […] (necrostatin-1, 10 M) in DMEM medium with 5% FBS for 2 h, followed by 750 M PA treatment for 24 h. The cells were then co-stained by Propidium Iodide (PI) and Hoechst 33342 NucBlue Live Cell Stain dye (ThermoFisher) to show the dead and live cells. The dyes were excited at 535 nm and 405 nm, respectively. TRG may be provided over a range of concentration such as 50 to 300 M, 60 to 290, 70 to 280, 80 to 270, 90 to 260, 100 to 250, 110 to 240, 120 to 230, 130 to 220, 140 to 210, 150 to 200, 160 to 190, 170 to 180, as well as sub ranges such as from 100M to 200 M, 125M to 175 M, etc., also include individual concentrations, such as 125M, 150 M, 175M, etc. […]

[2] = tested on: HEK_Spike cells; experiment: Palmitic acid (PA)-induced lipotoxicity assay in Spike cells, with or without inhibitors (PI/Hoechst cell viability); format: cell-based, Human; conditions: for PA-induced Spike protein-exaggerated lipotoxicity (necrosis, cell viability): Spike cells, then 750 M PA 24 h, DMEM 5% FBS
Description: as §1
For treatment control groups, the cells were treated by the same concentrations of BSA in parallel. For the inhibitory assay, the cells were pre-incubated by autophagic inhibitors (125 M trigonelline (TRG), or 10 M Wortmannin), or a ferropotosis inhibitor (ferrostatin, 2 M), or an […] (necrostatin-1, 10 M) in DMEM medium with 5% FBS for 2 h, followed by 750 M PA treatment for 24 h. The cells were then co-stained by Propidium Iodide (PI) and Hoechst 33342 NucBlue Live Cell Stain dye (ThermoFisher) to show the dead and live cells. The dyes were excited at 535 nm and 405 nm, respectively. TRG may be provided over a range of concentration such as 50 to 300 M, 60 to 290, 70 to 280, 80 to 270, 90 to 260, 100 to 250, 110 to 240, 120 to 230, 130 to 220, 140 to 210, 150 to 200, 160 to 190, 170 to 180, as well as sub ranges such as from 100M to 200 M, 125M to 175 M, etc., also include individual concentrations, such as 125M, 150 M, 175M, etc. Wortmannin may be provided over a range of concentrations from 5 to 100, 10 to 90, 15 to 80, 20 to 70, 25 to 60, 30 to 50 M, etc., including subranges and individual concentrations within these ranges.
Images were acquired and cell viability analyses were performed using an ImagXpress Pico Automated system.

[3] = tested on: H9C2 cells; experiment: Spike-exosome induced mitochondrial morphology change in H9C2 cells (MitoTracker, confocal); format: cell-based; conditions: spike-exo 150 μg exosomal proteins in 1 ml medium plus TRG 125 μM, 5 days
[4] = tested on: Human dermal microvascular ECs (hDMVECs); format: cell-based
[5] = tested on: H9C2 cells

## CCCCCCCCCCCCCCCC(=O)O [PA, Palmitic acid]
[1]
  PA-induced cell death (lipotoxicity): induced cell death
[2]; 500 M and 250 M PA, after 72 h treatment
  effect of PA on the Spike cells: modest or mild effect
[2]; Spike cells versus mock and pcDNA cells, PA 750 or 1000 M, 24 to 72 h
  PA-induced cell death (lipotoxicity): significantly augmented

## C[n+]1cccc(C(=O)[O-])c1 [TRG, Trigonelline]
[3]
  spike-exo induced mitochondrial fusion (mitochondrial morphology): can reverse
[4]
  cellular ROS levels: attenuated
  density of mitochondria decreased by Spike-EVs plus LDL-c: could restore
  diameter of mitochondria decreased by Spike-EVs plus LDL-c: could restore
[5]
  PA-induced Spike protein-exaggerated lipotoxicity (cell viability): could be reversed
[2]; pre-incubated with 125 M TRG 2 h
  PA-induced Spike protein-exaggerated lipotoxicity (necrosis, cell viability): can attenuate; also recorded: can be suppressed; also recorded: significantly mitigated
[2]; pre-incubated with 125 M TRG 2 h, listed as trigonelline
  PA-induced Spike protein-exaggerated lipotoxicity (necrosis, cell viability): could be attenuated

## CCOC(=O)c1ccc(NC2CCCCC2)c(N)c1 [ferrostatin]
[2]; pre-incubated with ferrostatin 2 M 2 h
  PA-induced Spike protein-exaggerated lipotoxicity (necrosis, cell viability): significantly mitigated
[2]; pre-incubated with ferrostatin 2 M 2 h, listed as ferrostatin 1
  PA-induced Spike protein-exaggerated lipotoxicity (necrosis, cell viability): can be suppressed
